System: soyabean crop
Assay: Evaluation of % damage in soyabean crop using safener (prothioconazole phytotoxicity reduction)
Text: A 480 SC (suspension concentrate) formulation of prothioconazole was used. The application amount of prothioconazole was high in an amount of 350 g ai/ha.
A 480 SC (suspension concentrate) formulation of prothioconazole was used. The application amount of prothioconazole was lower in an amount of 175 g ai/ha.

With mancozeb as the substance, how does the “% Damage” value (prothioconazole 175 g ai/ha (480 SC) + safener 560 g ai/ha, ratio 1:3.2) read?
Its value is 15.0%.

And the “% Damage” value (prothioconazole 175 g ai/ha (480 SC) + safener 1120 g ai/ha, ratio 1:6.4)?
The value was 18.0%.

And the “% Damage” value (prothioconazole 175 g ai/ha (480 SC) + safener 1680 g ai/ha, ratio 1:9.6)?
Its value is 11.7%.

And the “% Damage” value (prothioconazole 350 g ai/ha (480 SC) + safener 560 g ai/ha, ratio 1:1.6)?
Its value is 32.5%.

And the “% Damage” value (prothioconazole 350 g ai/ha (480 SC) + safener 1120 g ai/ha, ratio 1:3.2)?
The value was 21.7%.

What about the “% Damage” value (prothioconazole 350 g ai/ha (480 SC) + safener 1680 g ai/ha, ratio 1:4.8) of the same substance?
The value was 19.2%.

Source: patent US20250318521A1, “COMBINATION FOR REDUCING PHYTOTOXICITY OF SYSTEMIC FUNGICIDES IN CROPS AND RELATED METHODS” (UPL Mauritius Limited, priority 2024, published 2025)
